Measurements as given in US20160083380A1, “OXIMINO DERIVATIVES FOR THE TREATMENT OF DYSLIPIDEMIA” (CADILA HEALTHCARE LIMITED, priority 2013, published 2016).
Like-named read-outs stand apart in the source and are kept apart here.

Tested on: high fat diet C57 mice
Experiment: LDL-C lowering activity in high fat diet C57 mice
Assay type: in vivo
Details: Mus musculus, po, 672 h, C57 mice on high fat diet, orally once a day, dose 30 mg (30 mpk), blood collected on day 28 of treatment
Procedure: LDL-C Lowering Activity—in High Fat Diet C57 Mice
The in-vivo LDL-c lowering for test compound was tested in C57 mice which were kept on high fat diet for 4 weeks and the blood was collected by retro-orbital sinus puncture method under light ether anesthesia on day 0 (pretreatment). Animal are grouped based on LDL-c levels, after that 4-6 week treatment with vehicle or test compound orally at a dose of 30 mpk dose once a day was given. On completion of treatment on day 28 of the treatment the blood was collected for LDL-c and TC levels measurement. The percent change in LDL-c and TC in test compound group Vs Vehicle group was calculated.

[1] = read-out: % Change Vs Vehicle Control LDL-c
[2] = read-out: % Change Vs Vehicle Control TC

SMILES	change in vivo at 30 mg/kg [1]	change in vivo at 30 mg/kg [2]
C/C(=N\OCc1ccc(C(F)(F)F)cc1)c1ccc(OCc2nnn(C)n2)cc1 [Example 2, 1-(4-((2-Methyl-2H-tetrazol-5-yl)methoxy)phenyl)ethanone O-(4-(trifluoromethyl)benzyl)oxime]	-29 ± 6%	-14 ± 3%
C/C(=N\OCc1ccc(C(F)(F)F)cc1)c1ccc(OCc2cnn[nH]2)cc1 [Example 6, 1-(4-((1H-1,2,3-triazol-5-yl)methoxy)phenyl)ethanone O-(4-(trifluoromethyl)benzyl)oxime]	-30 ± 5%	-11 ± 2%
C/C(=N\OCc1ccc(C(F)(F)F)cc1)c1ccc(OCc2nnn(CC3CCCCC3)n2)nc1 [Example 52, 1-(6-((2-(Cyclohexylmethyl)-2H-tetrazol-5-yl)methoxy)pyridin-3-yl)ethanone O-(4-(trifluoromethyl)benzyl)oxime]	-18 ± 11%	-2 ± 5%
C/C(=N\OCc1ccc(F)cc1)c1ccc(OCc2nnn[nH]2)cc1 [Example 31, 1-(4-((1H-tetrazol-5-yl)methoxy)phenyl)ethanone O-(4-fluorobenzyl)oxime]	-26 ± 10%	-7 ± 4%
C/C(=N\OCc1ccc(C(F)(F)F)cc1)c1ccc(OCc2nnn(CC3CC3)n2)nc1 [Example 50, 1-(6-((2-(Cyclopropylmethyl)-2H-tetrazol-5-yl)methoxy)pyridin-3-yl)ethanone O-(4-(trifluoromethyl)benzyl)oxime]	-47 ± 4%	-18 ± 3%
C/C(=N\OCc1ccc(C(F)(F)F)cc1)c1ccc(OCc2nnnn2CC(=O)O)nc1 [Example 56, 2-(5-(((5-(1-(((4-(Trifluoromethyl)benzyl)oxy)imino)ethyl)pyridin-2-yl)oxy)methyl)-1H-tetrazol-1-yl)acetic acid]	-22 ± 5%	-16 ± 4%
CCn1nnnc1COc1ccc(/C(C)=N/OCc2ccc(C(F)(F)F)cc2)cc1 [Example 42, 1-(4-((1-Ethyl-2H-tetrazol-5-yl)methoxy)phenyl)ethanone O-(4-(trifluoromethyl)benzyl)oxime]	-22 ± 9%	1 ± 6%
C/C(=N\OCc1ccc(C(C)(F)F)cc1)c1ccc(OCc2nnn[nH]2)cc1 [Example 22, 1-(4-((1H-tetrazol-5-yl)methoxy)phenyl)ethanone O-(4-(1,1-difluoroethyl)benzyl)oxime]	-61 ± 3%	-30 ± 3%
C/C(=N\OCc1ccc(C(F)(F)F)cc1)c1ccc(OCc2nnc(C)[nH]2)nc1 [Example 18, 1-(6-((5-Methyl-4H-1,2,4-triazol-3-yl)methoxy)pyridin-3-yl)ethanone O-(4-(trifluoromethyl)benzyl)oxime]	-23 ± 6%	-11 ± 3%
C/C(=N\OCc1ccc(C(C)(F)F)cc1)c1ccc(OCc2nnn(CC3CC3)n2)nc1 [Example 60, 1-(6-((2-(Cyclopropylmethyl)-2H-tetrazol-5-yl)methoxy)pyridin-3-yl)ethanone O-(4-(1,1-difluoroethyl)benzyl)oxime]	-49 ± 3%	-17 ± 3%
C/C(=N\OCc1ccc(C(F)(F)F)cc1)c1ccc(OCc2nnn[nH]2)cc1O [Example 27, 1-(4-((1H-tetrazol-5-yl)methoxy)-2-hydroxyphenyl) ethanone O-(4-(trifluoromethyl)benzyl)oxime]	-50 ± 5%	-25 ± 3%
C/C(=N\OCc1ccc(C(F)(F)F)cc1)c1ccc(OCc2nnn[nH]2)nc1Cl [Example 36, 1-(6-((1H-tetrazol-5-yl)methoxy)-2-chloropyridin-3-yl)ethanone O-(4-(trifluoromethyl)benzyl)oxime]	-39 ± 5%	-12 ± 3%
COc1cc(CO/N=C(\C)c2ccc(OCc3nnn[nH]3)cc2)ccc1C(F)(F)F [Example 25, 1-(4-((1H-tetrazol-5-yl)methoxy)phenyl)ethanone O-(3-methoxy-4-(trifluoromethyl)benzyl)oxime]	-54 ± 3%	-21 ± 2%
CC(=NOCc1ccc(C(F)(F)F)cc1)c1ccc(OCc2nnn[nH]2)nc1 [Example 4, 1-(6-((1H-tetrazol-5-yl)methoxy)pyridin-3-yl)ethanone O-(4-(trifluoromethyl)benzyl)oxime]	-66 ± 2%	-41 ± 4%
C/C(=N\OCc1ccc(C(F)(F)F)cc1)c1ccc(OCc2nnnn2C)cc1 [Example 3, 1-(4-((1-Methyl-H-tetrazol-5-yl)methoxy)phenyl)ethanone O-(4-(trifluoromethyl)benzyl)oxime]	-5 ± 8%	-1 ± 3%
CCn1nnc(COc2ccc(/C(C)=N/OCc3ccc(C(F)(F)F)cc3)cc2)n1 [Example 41, 1-(4-((2-Ethyl-2H-tetrazol-5-yl)methoxy)phenyl)ethanone O-(4-(trifluoromethyl)benzyl)oxime]	-36 ± 6%	-11 ± 5%
C/C(=N\OCc1ccc(C(C)(F)F)cc1)c1ccc(OCc2nnn(C(C)C)n2)nc1 [Example 58, 1-(6-((2-isoPropyl-2H-tetrazol-5-yl)methoxy)pyridin-3-yl)ethanone O-(4-(1,1-difluoroethyl)benzyl)oxime]	-36 ± 6%	-7 ± 2%
C/C(=N\OCc1ccc(C(C)(F)F)cc1)c1ccc(OCc2nnn[nH]2)nc1 [Example 43, 1-(6-((1H-tetrazol-5-yl)methoxy)pyridin-3-yl) ethanone O-(4-(1,1-difluoroethyl)benzyl)oxime]	-67 ± 1%	-38 ± 2%
C/C(=N\OCc1ccc(C(F)(F)F)cc1)c1ccc(OCc2nnn(C(C)C)n2)nc1 [Example 48, 1-(6-((2-isoPropyl-2H-tetrazol-5-yl)methoxy)pyridin-3-yl)ethanone O-(4-(trifluoromethyl)benzyl)oxime]	-47 ± 7%	-17 ± 3%
CCn1nnc(COc2ccc(/C(C)=N/OCc3ccc(C(C)(F)F)cc3)cn2)n1 [Example 44, 1-(6-((2-Ethyl-2H-tetrazol-5-yl)methoxy)pyridin-3-yl)ethanone O-(4-(1,1-difluoroethyl)benzyl)oxime]	-50 ± 5%	-17 ± 3%
C/C(=N\OCc1ccc(C(F)(F)F)cc1)c1ccc(OCc2nnn[nH]2)cc1 [Example 1, 1-(4-((1H-tetrazol-5-yl)methoxy)phenyl)ethanone O-(4-(trifluoromethyl)benzyl)oxime]	-50 ± 4%	-24 ± 4%
C/C(=N\OCc1ccc(C(F)(F)F)cc1)c1ccc(OCc2nnnn2C)cc1O [Example 29, 1-(2-Hydroxy-4-((1-methyl-1H-tetrazol-5-yl)methoxy)phenyl)ethanone O-(4-(trifluoromethyl)benzyl)oxime]	-14 ± 6%	-5 ± 3%
C/C(=N\OCc1ccc(C(F)(F)F)cc1)c1ccc(OCc2nnc(C)o2)cc1 [Example 7, 1-(4-((5-Methyl-1,3,4-oxadiazol-2-yl)methoxy)phenyl)ethanone O-(4-(trifluoromethyl)benzyl)oxime]	-34 ± 7%	-10 ± 7%
C/C(=N\OCc1ccc(C(F)(F)F)cc1)c1ccc(OCc2nnc(N)o2)cc1 [Example 20, 1-(4-((5-Amino-1,3,4-oxadiazol-2-yl)methoxy)phenyl)ethanone O-(4-(trifluoromethyl)benzyl)oxime]	-29 ± 5%	-13 ± 2%
CCn1nnc(COc2ccc(/C(C)=N/OCc3ccc(C(F)(F)F)cc3)cn2)n1 [Example 46, 1-(6-((2-Ethyl-2H-tetrazol-5-yl)methoxy)pyridin-3-yl)ethanone O-(4-(trifluoromethyl)benzyl)oxime]	-41 ± 4%	-20 ± 2%
